50 compounds from patent publication US20050009834A1, “Azole compounds, process for preparation of the same and use thereof” (priority 2001, published 2005) can be followed below.

The test system of one experiment is Plutella xylostella. Description: insecticidal effect for Plutella xylostella (cabbage leaf dip). It counts as in vivo. The settings on record: 100 ppm, second-instar larvae, fifth day after, 24° C. Here is the method:
1) insecticidal effect for Plutella xylostella One 7 to 8-leave stage foliage leaf of cabbage was cut off and dipped in a pesticidal solution for a few seconds, which was prepared by dissolving 5 mg of test compound (represented by the compound Nos. in the above Examples) in 0.5 ml of acetone containing Tween 20 (trade name) and then diluting it to the prescribed concentration (100 ppm) with Dain water diluted 5000-fold. After drying the pesticidal solution, the leaf was put into an ice cream cup (180 ml), and ten second-instar larvae of Plutella xylostella were set free. The cup was left in a temperature-controlled breeding room (24° C.). On the fifth day after, the number of surviving Plutella xylostella was examined. The rate of dead pests was calculated by the following formula, and the result was shown in table 39. rate of dead pests (%)=(number of dead pests/number of test pests)×100

Another experiment relates to Tetranychus urticae. Description: acaricidal effect for Tetranychus urticae (spray on string bean). It counts as in vivo. The settings on record: 500 ppm, female imagoes, survivors counted on second and seventh day after treatment, 25° C. Here is the method:
2) acaricidal effect for Tetranychus urticae Ten female imagoes Tetranychus urticae were set free on a string bean wherein first leaves had just developed. On the following day, the pesticidal solution, which was prepared by dissolving 5 mg of test compound (represented by the compound Nos. in the above Examples) in 0.5 ml of acetone containing Tween 20 (trade name) and then diluting it to the prescribed concentration (500 ppm) with Dain water diluted 5000-fold, was sprayed with spray gun in the amounts wherein the pesticidal solution dripped. The string bean was left in a temperature-controlled breeding room (25° C.). On the second and seventh day after treatment, the number of surviving Tetranychus urticae was examined. The rate of decrease was calculated by the following formula, and the result was shown in table 40. rate of decrease (%)=(1−(S2/(5.59×(10+(10+S1)/2+S1))))×100 • S1; the number of surviving imagoes on the second day after S2; the number of surviving imagoes on the seventh day after […]

On to `Fc1cccc(Cl)c1-c1nc(C(F)F)n(-c2ccc(COc3ncc(C(F)(F)F)cc3Cl)cc2)n1` [T-120], for which, in the experiment on Plutella xylostella, the “Rate of dead pests (%)” value was determined as 100%. For the same compound, the “Rate of decrease (%)” value in the experiment with Tetranychus urticae is 99%. As for `Cc1nc(-c2c(F)ccc(F)c2Cl)nn1-c1ccc(COc2ncc(C(F)(F)F)cc2Cl)cc1` [T-138], in the experiment on Tetranychus urticae, the “Rate of decrease (%)” value was found to be 99%. On to `N#Cc1nc(-c2c(F)cccc2Cl)nn1-c1ccc(COc2ncc(C(F)(F)F)cc2Cl)cc1` [T-52], for which the “Rate of dead pests (%)” value in the experiment with Plutella xylostella is recorded as 100%. For the same compound, the “Rate of decrease (%)” value in the experiment on Tetranychus urticae was 97%. With `COC(=O)c1nc(-c2c(F)cccc2Cl)nn1-c1ccc(COc2ncc(C(F)(F)F)cc2Cl)cc1` [T-143], in the experiment on Tetranychus urticae, the “Rate of decrease (%)” value is given as 98%. Take `Fc1cccc(Cl)c1-c1nc(Cl)n(-c2ccc(COc3ncc(C(F)(F)F)cc3Cl)cc2)n1` [T-43]: the “Rate of dead pests (%)” value with Plutella xylostella amounted to 100%. The “Rate of decrease (%)” value in the experiment on Tetranychus urticae was 100%. Consider `Cc1nc(-c2c(F)cccc2Cl)nn1-c1ccc(COc2ccc(C(F)(F)F)cc2)cc1` [T-5], for which, in the experiment with Plutella xylostella, the “Rate of dead pests (%)” value was 95%. Besides, the “Rate of decrease (%)” value with Tetranychus urticae is 96%. In the same order, the values of `CCc1nc(-c2c(F)cccc2F)nn1-c1ccc(COc2ncc(C(F)(F)F)cc2Cl)cc1` [T-88] are 95% and 98%. As for `Cc1nc(-c2c(F)cccc2Cl)nn1-c1ccc(COc2ccc(Cl)cc2Cl)cc1` [T-9], in the experiment on Plutella xylostella, the “Rate of dead pests (%)” value is recorded as 100%. In addition, the “Rate of decrease (%)” value with Tetranychus urticae stood at 99%.

With `Cc1nc(-c2c(F)cccc2Cl)nn1-c1ccc(C(C)Oc2ncc(C(F)(F)F)cc2Cl)cc1` (racemic) [T-267], in the experiment with Plutella xylostella, the “Rate of dead pests (%)” value is on record as 100%. The “Rate of decrease (%)” value in the experiment with Tetranychus urticae is on record as 99%. In the case of `C#Cc1nc(-c2c(F)cccc2Cl)nn1-c1ccc(COc2ncc(C(F)(F)F)cc2Cl)cc1` [T-132], the “Rate of decrease (%)” value in the experiment on Tetranychus urticae came out at 100%. `C=Cc1nc(-c2c(F)cccc2Cl)nn1-c1ccc(COc2ncc(C(F)(F)F)cc2Cl)cc1` [T-106]: the “Rate of dead pests (%)” value in the experiment with Plutella xylostella is given as 100%. For the same compound, the “Rate of decrease (%)” value with Tetranychus urticae came out at 97%. As to `Fc1cccc(F)c1-c1ncn(-c2ccc(COc3ncc(C(F)(F)F)cc3Cl)cc2)n1` [T-76], the “Rate of decrease (%)” value with Tetranychus urticae stood at 96%. As for `Fc1cccc(Cl)c1-c1nc(C2CC2)n(-c2ccc(COc3ncc(C(F)(F)F)cc3Cl)cc2)n1` [T-93], in the experiment on Tetranychus urticae, the “Rate of decrease (%)” value worked out at 97%. With `Cc1nc(-c2c(F)cccc2Cl)nn1-c1ccc(COc2ccc(Cl)cc2)cc1` [T-3], in the experiment with Plutella xylostella, the “Rate of dead pests (%)” value was found to be 100%. Moreover, the “Rate of decrease (%)” value with Tetranychus urticae was found to be 98%.

On to `Cc1nc(-c2c(F)ccc(Cl)c2F)nn1-c1ccc(COc2ncc(C(F)(F)F)cc2Cl)cc1` [T-137], for which, in the experiment with Tetranychus urticae, the “Rate of decrease (%)” value is reported as 99%. For `Cc1nc(-c2c(F)cccc2Cl)nn1-c1ccc(COc2ncc(Cl)cn2)cc1` [T-24], in the experiment on Tetranychus urticae, the “Rate of decrease (%)” value was 97%. Regarding `Cc1nc(-c2c(F)cccc2Cl)nn1-c1ccc(COc2ccc(Cl)cn2)cc1` [T-18], in the experiment on Plutella xylostella, the “Rate of dead pests (%)” value was found to be 100%. Further, the “Rate of decrease (%)” value in the experiment with Tetranychus urticae is 97%. Take `Cc1nc(-c2c(Cl)cc(Cl)cc2Cl)nn1-c1ccc(COc2ncc(C(F)(F)F)cc2Cl)cc1` [T-131]: the “Rate of decrease (%)” value with Tetranychus urticae was 100%. With `CCc1nc(-c2c(F)cccc2Cl)nn1-c1ccc(COc2ncc(C(F)(F)F)cc2Cl)cc1` [T-48], in the experiment on Plutella xylostella, the “Rate of dead pests (%)” value stood at 100%. Besides, the “Rate of decrease (%)” value with Tetranychus urticae was determined as 99%. As for `Cc1nc(-c2c(F)cccc2Cl)nn1-c1ccc(COc2nnc(C(F)(F)F)s2)cc1` [T-25], the “Rate of decrease (%)” value with Tetranychus urticae is reported as 99%. Still for that read-out and setting: the same measure for `Cc1nc(-c2cccnc2Cl)nn1-c1ccc(COc2ncc(C(F)(F)F)cc2Cl)cc1` [T-130]: 98%; for `Fc1ccccc1-c1cn(-c2ccc(COc3ncc(C(F)(F)F)cc3Cl)cc2)c(Cl)n1` [I-77]: 95%. Regarding `COCc1nc(-c2c(F)cccc2Cl)nn1-c1ccc(COc2ncc(C(F)(F)F)cc2Cl)cc1` [T-56], in the experiment with Plutella xylostella, the “Rate of dead pests (%)” value is recorded as 100%. In addition, the “Rate of decrease (%)” value in the experiment on Tetranychus urticae is 98%. `Cc1nc(-c2c(F)cccc2Cl)nn1-c1ccc(COc2ccc(C(F)(F)F)cn2)cc1` [T-17]: the “Rate of dead pests (%)” value in the experiment on Plutella xylostella is on record as 100%. On to `Cc1nc(-c2c(F)c(F)cc(F)c2F)nn1-c1ccc(COc2ncc(C(F)(F)F)cc2Cl)cc1` [T-134], for which, in the experiment with Tetranychus urticae, the “Rate of decrease (%)” value is reported as 100%.

With `COc1cccc(OC)c1-c1nc(C)n(-c2ccc(COc3ncc(C(F)(F)F)cc3Cl)cc2)n1` [T-140], in the experiment with Tetranychus urticae, the “Rate of decrease (%)” value was found to be 99%.

Turning to `CC(C)c1nc(-c2c(F)cccc2Cl)nn1-c1ccc(COc2ncc(C(F)(F)F)cc2Cl)cc1` [T-92], the “Rate of decrease (%)” value in the experiment with Tetranychus urticae came out at 98%. On to `O=Cc1nc(-c2c(F)cccc2Cl)nn1-c1ccc(COc2ncc(C(F)(F)F)cc2Cl)cc1` [T-107], for which the “Rate of dead pests (%)” value in the experiment on Plutella xylostella is recorded as 100%. Besides, the “Rate of decrease (%)” value in the experiment with Tetranychus urticae is on record as 100%. `Cc1nc(-c2c(F)cccc2Cl)nn1-c1ccc(COc2ncc(Cl)cc2Cl)cc1` [T-20]: the “Rate of dead pests (%)” value with Plutella xylostella came to 100%. In addition, the “Rate of decrease (%)” value in the experiment with Tetranychus urticae is listed as 98%.

Regarding `Cc1nc(-c2c(F)cccc2Cl)nn1-c1ccc(Oc2ncc(C(F)(F)F)cc2Cl)cc1` [T-264], the “Rate of decrease (%)” value with Tetranychus urticae came out at 98%.

Regarding `Cc1nc(-c2c(F)cccc2C(F)(F)F)nn1-c1ccc(COc2ncc(C(F)(F)F)cc2Cl)cc1` [T-133], the “Rate of dead pests (%)” value in the experiment on Plutella xylostella was found to be 95%. In addition, in the experiment on Tetranychus urticae, the “Rate of decrease (%)” value came out at 99%.

Take `Fc1cccc(Cl)c1-c1nc(CCl)n(-c2ccc(COc3ncc(C(F)(F)F)cc3Cl)cc2)n1` [T-53]: the “Rate of decrease (%)” value with Tetranychus urticae was determined as 99%. With `Cc1cccc(C)c1-c1nc(C)n(-c2ccc(COc3ncc(C(F)(F)F)cc3Cl)cc2)n1` [T-74], the “Rate of dead pests (%)” value in the experiment on Plutella xylostella is given as 100%. Further, the “Rate of decrease (%)” value in the experiment on Tetranychus urticae came to 97%. In the same order, the values of `COc1nc(-c2c(F)cccc2Cl)nn1-c1ccc(COc2ncc(C(F)(F)F)cc2Cl)cc1` [T-46] are 100% and 99%. Regarding `Cc1nc(-c2c(F)cccc2Cl)nn1-c1ccc(COc2ncc(C(F)(F)F)cn2)cc1` [T-139], in the experiment on Tetranychus urticae, the “Rate of decrease (%)” value amounted to 97%.

Turning to `CC1=CN(Cc2ccc(COc3ncc(C(F)(F)F)cc3Cl)cc2)NC(c2c(F)cccc2Cl)=N1` [T-171, 3-(2-chloro-6-fluorophenyl)-1-[4-(3-chloro-5-trifluoromethyl-2-pyridyloxymethyl)phenylmethyl]-5-methyl-1H-1,2,4-triazine], the “Rate of decrease (%)” value with Tetranychus urticae came to 99%. As for `FC(F)(F)c1cnc(OCc2ccc(-n3cnc(-c4cc(Cl)nc(Cl)c4)n3)cc2)c(Cl)c1` [T-75], the “Rate of decrease (%)” value with Tetranychus urticae is given as 99%. Same read-out and setting: the same measure for `FCc1nc(-c2c(F)cccc2Cl)nn1-c1ccc(COc2ncc(C(F)(F)F)cc2Cl)cc1` [T-54]: 98%. For `Fc1cccc(F)c1-c1nc(Cl)n(-c2ccc(COc3ncc(C(F)(F)F)cc3Cl)cc2)n1` [T-78], the “Rate of dead pests (%)” value in the experiment with Plutella xylostella is reported as 100%. Moreover, in the experiment on Tetranychus urticae, the “Rate of decrease (%)” value was found to be 98%.

Turning to `Nc1nc(-c2c(F)cccc2Cl)nn1-c1ccc(COc2ncc(C(F)(F)F)cc2Cl)cc1` [T-40], the “Rate of dead pests (%)” value in the experiment on Plutella xylostella is recorded as 95%. For the same compound, the “Rate of decrease (%)” value with Tetranychus urticae amounted to 97%.

With `Cc1nc(-c2c(F)cccc2Cl)nn1-c1ccc(COc2ncc(C(F)(F)F)cc2Cl)cn1` [T-28], the “Rate of dead pests (%)” value in the experiment with Plutella xylostella is recorded as 100%. Also, the “Rate of decrease (%)” value with Tetranychus urticae was 98%. As for `Cc1nc(-c2c(F)cccc2F)nn1-c1ccc(COc2ccc(C(F)(F)F)cn2)cc1` [T-66], the “Rate of dead pests (%)” value in the experiment on Plutella xylostella was 95%. As to `Cc1nc(-c2c(F)cc(F)cc2F)nn1-c1ccc(COc2ncc(C(F)(F)F)cc2Cl)cc1` [T-135], the “Rate of decrease (%)” value in the experiment on Tetranychus urticae is recorded as 96%.

With `Cc1nc(-c2c(F)cccc2Cl)nn1-c1ccc(COc2ncc(C(F)(F)F)cc2Cl)cc1Cl` [T-30], the “Rate of dead pests (%)” value with Plutella xylostella is 100%. In the experiment with Tetranychus urticae, the “Rate of decrease (%)” value was found to be 99%. In the same order, the values of `Cc1nc(-c2c(F)cccc2Cl)nn1-c1ccc(COc2ncc(C(F)(F)F)cc2Cl)cc1` [T-21, 3-(2-chloro-6-fluorophenyl)-1-[4-(3-chloro-5-trifluoromethylpyridin-2-yloxymethyl)phenyl]-5-methyl-1H-1,2,4-triazole] are 100% and 100%. In the same order, the values of `Fc1cccc(Cl)c1-c1cc(Cl)n(-c2ccc(COc3ncc(C(F)(F)F)cc3Cl)cc2)n1` [P-21, 5-chloro-3-(2-chloro-6-fluorophenyl)-1-[4-(3-chloro-5-trifluoromethylpyridin-2-yloxymethyl)phenyl]pyrazole] are 100% and 99%. `Cc1nc(-c2ccccc2OC(F)(F)F)nn1-c1ccc(COc2ncc(C(F)(F)F)cc2Cl)cc1` [T-136]: the “Rate of decrease (%)” value in the experiment with Tetranychus urticae worked out at 99%.

As to `Fc1cccc(Cl)c1-c1nc(C(F)(F)F)n(-c2ccc(COc3ncc(C(F)(F)F)cc3Cl)cc2)n1` [T-47], the “Rate of dead pests (%)” value in the experiment with Plutella xylostella was determined as 100%. Further, in the experiment with Tetranychus urticae, the “Rate of decrease (%)” value worked out at 100%. Turning to `O=Cc1nc(-c2ccccc2F)cn1-c1ccc(COc2ncc(C(F)(F)F)cc2Cl)cc1` [I-82], the “Rate of decrease (%)” value in the experiment with Tetranychus urticae turned out to be 99%. The same measure, in the same setting: the same measure for `Cc1nc(-c2c(F)cccc2Cl)nn1Cc1ccc(COc2ncc(C(F)(F)F)cc2Cl)cc1` [T-172]: 98%.
